Experiments:
K-562 = assay: NCI-60 anticancer screen (SRB; single dose and five doses); conditions: Homo sapiens
HT29 = assay: as above; conditions: Homo sapiens
NCI-H226 = assay: as above; conditions: Homo sapiens
MCF7 = assay: as above; conditions: Homo sapiens
MDA-MB-435 = assay: as above; conditions: Homo sapiens
786-0 = assay: as above; conditions: Homo sapiens
SNB-19 = assay: cells; conditions: Homo sapiens
OVCAR-4 = assay: NCI-60 anticancer screen (SRB; single dose and five doses); conditions: Homo sapiens
NCI/ADR-RES = assay: as above; conditions: Homo sapiens
OVCAR-3 = assay: cells; conditions: Homo sapiens
UO-31 = assay: NCI-60 anticancer screen (SRB; single dose and five doses); conditions: Homo sapiens
HCC-2998 = assay: as above; conditions: Homo sapiens
HL-60(TB) = assay: as above; conditions: Homo sapiens
A549/ATCC = assay: as above; conditions: Homo sapiens
LOX IMVI = assay: as above; conditions: Homo sapiens
T-47D = assay: as above; conditions: Homo sapiens, T47D
MOLT-4 = assay: as above; conditions: Homo sapiens
KM12 = assay: as above; conditions: Homo sapiens
NCI-H522 = assay: as above; conditions: Homo sapiens
OVCAR-5 = assay: as above; conditions: Homo sapiens
U251 = assay: as above; conditions: Homo sapiens
HCT-116 = assay: as above; conditions: Homo sapiens
[1] = test system: 60 human tumor cell lines panel; assay: NCI-60 anticancer screen, whole panel (means and ranges over the cell lines); format: cell-based
SK-MEL-5 = assay: NCI-60 anticancer screen (SRB; single dose and five doses); conditions: Homo sapiens
TK-10 = assay: as above; conditions: Homo sapiens
SK-OV-3 = assay: as above; conditions: Homo sapiens
HCT-15 = assay: as above; conditions: Homo sapiens
UACC-257 = assay: as above; conditions: Homo sapiens
MALME-3M = assay: as above; conditions: Homo sapiens
[2] = 48 h, read-out: Growth Percentage
[3] = five doses, mean graph midpoint over all cell lines

## Cc1[nH]c(=S)sc1C(=O)/C=C/c1cccc(Cl)c1 [2e, (E)-3-(3-Chlorophenyl)-1-(4-Methyl-2-Thioxo-2,3-Dihydrothiazol-5-yl)Prop-2-En-1-One]
K-562; K562
  GI50: 3.39 µM
  IC50: 4.27 µM
K-562; K562, 48 h, read-out: Growth Percentage
  activity at 10 µM: 16.8%
K-562; K562, read-out: LC50
  CC50: > 100 µM
K-562; K562, read-out: TGI
  IC (TGI): > 100 µM
HT29; HT-29
  GI50: 2.24 µM
  IC50: 3.55 µM
HT29; HT-29, 48 h, read-out: Growth Percentage
  activity at 10 µM: 29.9%
HT29; HT-29, read-out: LC50
  CC50: 12.6 µM
HT29; HT-29, read-out: TGI
  IC (TGI): 4.9 µM
NCI-H226; NCI-H226
  GI50: 4.37 µM
  IC50: 29.5 µM
NCI-H226; NCI-H226, 48 h, read-out: Growth Percentage
  activity at 10 µM: 32.7%
NCI-H226; NCI-H226, read-out: LC50
  CC50: > 100 µM
NCI-H226; NCI-H226, read-out: TGI
  IC (TGI): 38.9 µM
MCF7; MCF7
  GI50: 3.31 µM
  IC50: 8.13 µM
MCF7; MCF7, 48 h, read-out: Growth Percentage
  activity at 10 µM: 7.9%
MCF7; MCF7, read-out: LC50
  CC50: 37.1 µM
MCF7; MCF7, read-out: TGI
  IC (TGI): 12.3 µM
MDA-MB-435; MDA-MB-435
  GI50: 2.09 µM
  IC50: 3.55 µM
MDA-MB-435; MDA-MB-435, 48 h, read-out: Growth Percentage
  activity at 10 µM: 17.3%
MDA-MB-435; MDA-MB-435, read-out: LC50
  CC50: 17 µM
MDA-MB-435; MDA-MB-435, read-out: TGI
  IC (TGI): 5.01 µM
786-0; 786-0
  GI50: 2.51 µM
  IC50: 4.07 µM
786-0; 786-0, 48 h, read-out: Growth Percentage
  activity at 10 µM: 13.3%
786-0; 786-0, read-out: LC50
  CC50: 37.1 µM
786-0; 786-0, read-out: TGI
  IC (TGI): 6.31 µM
SNB-19; SNB-19
  IC50: 17 µM
SNB-19; SNB-19, read-out: LC50
  CC50: 49 µM
SNB-19; SNB-19, read-out: TGI
  IC (TGI): 21.4 µM
OVCAR-4; OVCAR-4
  GI50: 4.47 µM
  IC50: 12.9 µM
OVCAR-4; OVCAR-4, 48 h, read-out: Growth Percentage
  activity at 10 µM: 31.7%
OVCAR-4; OVCAR-4, read-out: LC50
  CC50: > 100 µM
OVCAR-4; OVCAR-4, read-out: TGI
  IC (TGI): 41.7 µM
NCI/ADR-RES
  GI50: 2.88 µM
  IC50: 5.01 µM
NCI/ADR-RES; [2]
  activity at 10 µM: -5.11%
NCI/ADR-RES; read-out: LC50
  CC50: > 100 µM
NCI/ADR-RES; read-out: TGI
  IC (TGI): > 100 µM
OVCAR-3; OVCAR-3
  GI50: 2.29 µM
  IC50: 4.17 µM
OVCAR-3; OVCAR-3, 48 h, read-out: Growth Percentage
  activity at 10 µM: 8.26%
OVCAR-3; OVCAR-3, read-out: LC50
  CC50: 22.9 µM
OVCAR-3; OVCAR-3, read-out: TGI
  IC (TGI): 6.03 µM
UO-31; UO-31
  GI50: 1.55 µM
  IC50: 2.88 µM
UO-31; UO-31, 48 h, read-out: Growth Percentage
  activity at 10 µM: 34.3%
UO-31; UO-31, read-out: TGI
  IC (TGI): 3.09 µM
HCC-2998; HCC 2998
  GI50: 2.57 µM
  IC50: 4.37 µM
HCC-2998; HCC 2998, 48 h, read-out: Growth Percentage
  activity at 10 µM: 13.9%
HCC-2998; HCC 2998, read-out: LC50
  CC50: 28.2 µM
HL-60(TB); HL-60
  GI50: 2.24 µM
  IC50: 4.27 µM
HL-60(TB); HL-60, 48 h, read-out: Growth Percentage
  activity at 10 µM: 25.3%
HL-60(TB); HL-60, read-out: LC50
  CC50: > 100 µM
HL-60(TB); HL-60, read-out: TGI
  IC (TGI): 7.08 µM
A549/ATCC; A549
  GI50: 4.79 µM
  IC50: 7.41 µM
A549/ATCC; A549, 48 h, read-out: Growth Percentage
  activity at 10 µM: 26.5%
A549/ATCC; A549, read-out: LC50
  CC50: > 100 µM
A549/ATCC; A549, read-out: TGI
  IC (TGI): 47.9 µM
LOX IMVI
  GI50: 1.66 µM
  IC50: 2.88 µM
LOX IMVI; [2]
  activity at 10 µM: -26.1%
LOX IMVI; read-out: LC50
  CC50: 5.75 µM
LOX IMVI; read-out: TGI
  IC (TGI): 3.09 µM
T-47D
  GI50: 3.39 µM
  IC50: 7.94 µM
T-47D; [2]
  activity at 10 µM: 4.54%
T-47D; read-out: LC50
  CC50: > 100 µM
T-47D; read-out: TGI
  IC (TGI): 20.9 µM
MOLT-4; MOLT-4
  GI50: 2.82 µM
  IC50: 4.27 µM
MOLT-4; MOLT-4, 48 h, read-out: Growth Percentage
  activity at 10 µM: 19.8%
MOLT-4; MOLT-4, read-out: LC50
  CC50: > 100 µM
MOLT-4; MOLT-4, read-out: TGI
  IC (TGI): > 100 µM
KM12; KM12
  GI50: 1.95 µM
  IC50: 3.39 µM
KM12; KM12, 48 h, read-out: Growth Percentage
  activity at 10 µM: -30.7%
KM12; KM12, read-out: TGI
  IC (TGI): 3.89 µM
NCI-H522; NCI-H522
  GI50: 4.57 µM
  IC50: 11.5 µM
NCI-H522; NCI-H522, 48 h, read-out: Growth Percentage
  activity at 10 µM: 22%
NCI-H522; NCI-H522, read-out: LC50
  CC50: 45.7 µM
NCI-H522; NCI-H522, read-out: TGI
  IC (TGI): 17.4 µM
OVCAR-5; OVCAR-5
  GI50: 5.25 µM
  IC50: 15.5 µM
OVCAR-5; OVCAR-5, 48 h, read-out: Growth Percentage
  activity at 10 µM: 36.4%
OVCAR-5; OVCAR-5, read-out: LC50
  CC50: 57.5 µM
OVCAR-5; OVCAR-5, read-out: TGI
  IC (TGI): 19.9 µM
U251; U-251
  GI50: 1.91 µM
  IC50: 3.31 µM
U251; U-251, 48 h, read-out: Growth Percentage
  activity at 10 µM: 12.1%
U251; U-251, read-out: LC50
  CC50: 7.24 µM
U251; U-251, read-out: TGI
  IC (TGI): 3.72 µM
HCT-116; HCT-116
  GI50: 1.82 µM
  IC50: 2.95 µM
HCT-116; HCT-116, 48 h, read-out: Growth Percentage
  activity at 10 µM: 3.28%
HCT-116; HCT-116, read-out: LC50
  CC50: 7.41 µM
HCT-116; HCT-116, read-out: TGI
  IC (TGI): 3.63 µM
[1]; Homo sapiens, 48 h, range over the cell lines, dose of 10 μM, read-out: growth percentages against most of the tested cells (lowest to highest)
  activity at 10 µM: -26.1 to 98%
[1]; [3]
  Log10GI50 _MID: -5.17 Molar
  Log10LC50 _MID: -4.26 Molar
  Log10TGI _MID: -4.66 Molar
SK-MEL-5; SK-MEL-5
  GI50: 4.79 µM
  IC50: 9.12 µM
SK-MEL-5; SK-MEL-5, 48 h, read-out: Growth Percentage
  activity at 10 µM: 16.1%
SK-MEL-5; SK-MEL-5, read-out: LC50
  CC50: 41.7 µM
SK-MEL-5; SK-MEL-5, read-out: TGI
  IC (TGI): 17 µM
TK-10; TK-10
  GI50: 19.5 µM
  IC50: 45.7 µM
TK-10; TK-10, read-out: LC50
  CC50: > 100 µM
TK-10; TK-10, read-out: TGI
  IC (TGI): 47.9 µM
SK-OV-3; SK-OV-3
  GI50: 17.4 µM
  IC50: 51.3 µM
SK-OV-3; SK-OV-3, 48 h, read-out: Growth Percentage
  activity at 10 µM: 59.9%
SK-OV-3; SK-OV-3, read-out: LC50
  CC50: > 100 µM
SK-OV-3; SK-OV-3, read-out: TGI
  IC (TGI): > 100 µM
HCT-15; HCT-15
  GI50: 2.09 µM
  IC50: 3.55 µM
HCT-15; HCT-15, 48 h, read-out: Growth Percentage
  activity at 10 µM: -22%
HCT-15; HCT-15, read-out: LC50
  CC50: 46.8 µM
HCT-15; HCT-15, read-out: TGI
  IC (TGI): 5.89 µM
UACC-257; UACC-257
  GI50: 3.63 µM
  IC50: 9.77 µM
UACC-257; UACC-257, 48 h, read-out: Growth Percentage
  activity at 10 µM: 52.7%
UACC-257; UACC-257, read-out: LC50
  CC50: 63.1 µM
UACC-257; UACC-257, read-out: TGI
  IC (TGI): 14.8 µM
MALME-3M
  GI50: 2.24 µM
  IC50: 5.13 µM
MALME-3M; [2]
  activity at 10 µM: 86.9%
MALME-3M; read-out: LC50
  CC50: 50.1 µM
MALME-3M; read-out: TGI
  IC (TGI): 5.75 µM
